Assay results reported in PubChem BioAssay AID1963854 (Molecular Pharmacology Branch, DTP, NCI, 2024).

Tested on: 186277-243-T-J2-PDC complex spheroid viability
Assay: Anticancer human tumor 186277-243-T-J2-PDC patient-derived colon adenocarcinoma cell line growth inhibition [POLQ]
Settings: for IC50: curve of first compound; for viability, T/C: stronger effect = lower value
Protocol: Multicellular complex tumor spheroid response to Polymerase (POL) inhibitors (novobiocin, ART-558, RP6685) in combination with a variety of drugs and investigational agents in selected tumor cell lines
The POL inhibitors (novobiocin, ART-558, and RP6685) were evaluated both individually and in combination with standard of care and investigational anticancer small molecules within a complex spheroid model of solid tumors. . Complex spheroids include a stromal component modeled by human endothelial cells (HUVEC) and fibroblasts modeled by human mesenchymal stem cells (MSCs). The concentration ranges selected for each drug and investigational agent were based upon clinically achievable concentrations if the clinical Cmax of the agent was known.
Compounds. The drugs and investigational agents: novobiocin (NSC847541), ART-558 (NSC835418), RP-6685 (NSC848927), peposertib (NSC802822), ceralasertib (NSC780249), elimusertib (NSC800525), camonsertib (NSC841442), AZD-1390 (NSC803789), olaparib (NSC753686), talazoparib (NSC767125), rucaparib (NSC756644), sotorasib (NSC818433), MRTX-1133 (NSC836407), SN-38 (NSC673596), topotecan (NSC609699), epotoside (NSC141540), doxorubicin (NSC123127), gemcitabine (NSC613327), 5-fluorouracil (NSC19893), paclitaxel (NSC125973), vemurafenib (NSC761431), MSA-2 (NSC828583), SN-011 (NSC837082), adavosertib (NSC754352), prexasertib (NSC758257), carboplatin (NSC241240) and oxaliplatin (NSC266046), were obtained from the National Cancer Institute (NCI) Developmental Therapeutics Program Chemical Repository (21). The FDA-approved anticancer drug set is available from the Developmental Therapeutics Program at https://dtp.cancer.gov/organization/dscb/obtaining/. […] The stock solutions were prepared in dimethyl sulfoxide (DMSO, Sigma-Aldrich, St. Louis, MO, cat. D2650), except for the platinum compounds which were prepared in saline (Quality Biological, Gaithersburg, MD, cat. 114-055-101), at 800-fold the tested concentration and stored at -70 degrees C prior to their use. All drugs and investigational agents were tested over a range starting from a high concentration at or near the clinical Cmax and decreasing in half-log increments. If the clinical Cmax for an agent had not been determined, the highest concentration tested was 10 microM, except for SN-38, which was tested at a high concentration of 1 microM.
Cell Culture. All cells were maintained in an incubator at 37 degrees C and 5% CO2 with 95% humidity. The PDC lines were cultured according to standard operating procedures established by the NCI PDMR (https://pdmr.cancer.gov). Table 3 of the manuscript, lists the cell lines along with the number of the three cell types plated to form the mct-spheroids and media for tumor cell growth. After thawing, all PDC lines, except 997537-175-T-J1-PDC and 415267-285-R-J2-PDC, were cultured in Matrigel-coated flasks prepared with a working solution of 1X Ham's F-12 nutrient mix, without supplementation (Thermo Fisher Scientific, cat. 11765054), 100 U/mL penicillin-streptomycin (Thermo Fisher Scientific, cat. 15140122), and 2.5% Matrigel (Corning Inc., Corning, NY, cat. 354248) for the first three passages. The two PDC lines 997537-175-T-J1-PDC and 415267-285-R-J2-PDC were cultured on uncoated flasks. The 857933-349-R-J2-PDC line was cultured in 6C/Colon 1B media containing advanced DMEM/F-12 (Thermo Fisher Scientific, cat. 12634028), 10 mM HEPES (Thermo Fisher Scientific, cat. 15630080), 1X GlutaMAX supplement (Thermo Fisher Scientific, cat. 35050061), 0.1 mg/mL primocin (InvivoGen, San Diego, CA, cat. ant-pm-2), 10% defined fetal bovine serum, heat inactivated (HyClone Laboratories Inc., Logan, UT, cat. SH30070.03HI), 50% L-WRN conditioned media (ATCC, cat. CRL-3276), 1.25 mM N-Acetyl-L-cysteine (Sigma-Aldrich, cat. A9165), 10 mM nicotinamide (Sigma-Aldrich, cat. N0636), 1X B-27 supplement (Thermo Fisher Scientific, cat. 17504044), 1X N-2 supplement (Thermo Fisher Scientific, cat. […]

[1] = second compound 0.0316 µM, first compound 0.0316 µM
[2] = second compound 0.0316 µM, first compound 0.1 µM
[3] = second compound 0.0316 µM, first compound 0.316 µM
[4] = second compound 0.0316 µM, first compound 1 µM
[5] = second compound 0.0316 µM, first compound 3.16 µM
[6] = second compound 0.0316 µM, first compound 10 µM
[7] = second compound 0.1 µM, first compound 0.0316 µM
[8] = second compound 0.1 µM, first compound 0.1 µM
[9] = second compound 0.1 µM, first compound 0.316 µM
[10] = second compound 0.1 µM, first compound 1 µM
[11] = second compound 0.1 µM, first compound 3.16 µM
[12] = second compound 0.1 µM, first compound 10 µM
[13] = second compound 0.316 µM, first compound 0.0316 µM
[14] = second compound 0.316 µM, first compound 0.1 µM
[15] = second compound 0.316 µM, first compound 0.316 µM
[16] = second compound 0.316 µM, first compound 1 µM
[17] = second compound 0.316 µM, first compound 3.16 µM
[18] = second compound 0.316 µM, first compound 10 µM
[19] = second compound 1 µM, first compound 0.0316 µM
[20] = second compound 1 µM, first compound 0.1 µM
[21] = second compound 1 µM, first compound 0.316 µM
[22] = second compound 1 µM, first compound 1 µM
[23] = second compound 1 µM, first compound 3.16 µM
[24] = second compound 1 µM, first compound 10 µM
[25] = second compound 3.16 µM, first compound 0.0316 µM
[26] = second compound 3.16 µM, first compound 0.1 µM
[27] = second compound 3.16 µM, first compound 0.316 µM
[28] = second compound 3.16 µM, first compound 1 µM
[29] = second compound 3.16 µM, first compound 3.16 µM
[30] = second compound 3.16 µM, first compound 10 µM
[31] = second compound 10 µM, first compound 0.0316 µM
[32] = second compound 10 µM, first compound 0.1 µM
[33] = second compound 10 µM, first compound 0.316 µM
[34] = second compound 10 µM, first compound 1 µM
[35] = second compound 10 µM, first compound 3.16 µM
[36] = second compound 10 µM, first compound 10 µM
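Further: spheroids exposed to compounds for seven days.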
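Wherever viability, T/C is given: 100% = DMSO vehicle control viability.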

## C#Cc1c(F)ccc2cc(O)cc(-c3ncc4c(N5CC6CCC(C5)N6)nc(OCC56CCCN5CC(F)C6)nc4c3F)c12 (centres undefined) + Nc1ccc(C#CCN(C(=O)Cc2ncc(C(F)(F)F)cc2C(F)(F)F)c2ccc(F)cc2)nn1
Second compound 0.0316 µM
  IC50: 315 nM
Second compound 0.1 µM
  IC50: 264 nM
Second compound 0.316 µM
  IC50: 262 nM
Second compound 1 µM
  IC50: 288 nM
Second compound 3.16 µM
  IC50: 178 nM
Second compound 10 µM
  IC50: 122 nM
[1]
  viability, T/C: 91.2%
[2]
  viability, T/C: 96.2%
[3]
  viability, T/C: 48.5%
[4]
  viability, T/C: 25.6%
[5]
  viability, T/C: 15.5%
[6]
  viability, T/C: 10.8%
[7]
  viability, T/C: 116%
[8]
  viability, T/C: 93.6%
[9]
  viability, T/C: 40.6%
[10]
  viability, T/C: 22.1%
[11]
  viability, T/C: 19.1%
[12]
  viability, T/C: 10.1%
[13]
  viability, T/C: 83.5%
[14]
  viability, T/C: 97.2%
[15]
  viability, T/C: 42%
[16]
  viability, T/C: 27.4%
[17]
  viability, T/C: 16.1%
[18]
  viability, T/C: 10.7%
[19]
  viability, T/C: 103%
[20]
  viability, T/C: 91%
[21]
  viability, T/C: 44.2%
[22]
  viability, T/C: 22.3%
[23]
  viability, T/C: 12.9%
[24]
  viability, T/C: 8.94%
[25]
  viability, T/C: 87.5%
[26]
  viability, T/C: 70.9%
[27]
  viability, T/C: 28.8%
[28]
  viability, T/C: 15.3%
[29]
  viability, T/C: 12.5%
[30]
  viability, T/C: 8.73%
[31]
  viability, T/C: 106%
[32]
  viability, T/C: 55.2%
[33]
  viability, T/C: 25%
[34]
  viability, T/C: 15%
[35]
  viability, T/C: 13%
[36]
  viability, T/C: 8.18%

## CCCS(=O)(=O)Nc1ccc(F)c(C(=O)c2c[nH]c3ncc(-c4ccc(Cl)cc4)cc23)c1F + Nc1ccc(C#CCN(C(=O)Cc2ncc(C(F)(F)F)cc2C(F)(F)F)c2ccc(F)cc2)nn1
Second compound 0.0316 µM
  IC50: > 10000 nM
Second compound 0.1 µM
  IC50: > 10000 nM
Second compound 0.316 µM
  IC50: > 10000 nM
Second compound 1 µM
  IC50: > 10000 nM
Second compound 3.16 µM
  IC50: > 10000 nM
Second compound 10 µM
  IC50: 9970 nM
[1]
  viability, T/C: 89.6%
[2]
  viability, T/C: 100%
[3]
  viability, T/C: 88.9%
[4]
  viability, T/C: 79.8%
[5]
  viability, T/C: 113%
[6]
  viability, T/C: 66.3%
[7]
  viability, T/C: 91.5%
[8]
  viability, T/C: 87.7%
[9]
  viability, T/C: 86.8%
[10]
  viability, T/C: 82.9%
[11]
  viability, T/C: 91.5%
[12]
  viability, T/C: 60.9%
[13]
  viability, T/C: 89.7%
[14]
  viability, T/C: 90.5%
[15]
  viability, T/C: 89%
[16]
  viability, T/C: 94.3%
[17]
  viability, T/C: 85.8%
[18]
  viability, T/C: 57.8%
[19]
  viability, T/C: 100%
[20]
  viability, T/C: 91.2%
[21]
  viability, T/C: 109%
[22]
  viability, T/C: 94.4%
[23]
  viability, T/C: 87.8%
[24]
  viability, T/C: 62.8%
[25]
  viability, T/C: 120%
[26]
  viability, T/C: 89.5%
[27]
  viability, T/C: 85%
[28]
  viability, T/C: 93.4%
[29]
  viability, T/C: 88%
[30]
  viability, T/C: 63.6%
[31]
  viability, T/C: 108%
[32]
  viability, T/C: 97.7%
[33]
  viability, T/C: 85.7%
[34]
  viability, T/C: 95.9%
[35]
  viability, T/C: 85.1%
[36]
  viability, T/C: 48.8%
